Values after ≈ are worked out from the molar mass of the structure shown. Read-outs that look alike come from different tables or passages of the source.
Columns and labels:
Format in all cases: cell-based
[1] = tested on: C. albicans (ATCC 90028); assay: in vitro micro-dilution susceptibility assay (method of Rojas); details: Candida albicans, read-out: minimum inhibition concentration (MIC)
Procedure: (§1) The in vitro susceptibility of Malassezia species to roflumilast was determined utilizing three Candida species as internal control isolates for all testing. These three isolates were C. albicans American Type Culture Collection (ATCC) 90028, C. krusei (ATCC 6258) and C. parapsilosis (ATCC 22019). In addition to testing roflumilast all susceptibility assays were conducted using ketoconazole and hydrocortisone as positive and negative control compounds, respectively. All assays were placed within a humidified incubator set to 32° C. for a total of seven days. Each assay was evaluated after 12 hours of incubation and, every 24 hours post incubation for a total of seven days. The assays were evaluated for visual growth of each pathogen in the no treatment control as well as determination of minimum inhibition concentration (MIC) values. The concentration that provides a 3-log10 CFU/mL reduction in fungal burden from baseline at day 0 was defined as the minimum fungicidal concentration (MHC) and was determined by quantifying fungal burdens found in the microplate at day seven.
(§2) The method of Rojas (Rojas F D, et al. Antifungal susceptibility of Malassezia furfur, Malassezia sympodialis, and Malassezia globose to azole drugs and amphotericin B evaluated using a broth microdilution method. 2014. Medical Mycology. 52:641-646) was used in which the liquid broth medium was RPMI 1640 with added 1.8% glucose, 1% peptone, 0.5% ox-bile, 0.5% malt extract, 1% glycerol, 0.5% Tween 40 and 0.05% Tween 80. Round bottom 96 well microplates were used. The inoculums were prepared in sterile saline and diluted to a final targeted concentration of 0.5×10^5 to 2.5×10^5 CFU/mL in supplemented RPMI. […] For the internal control isolate C. parapsilosis (ATCC 22019) the expected CLSI values for ketoconazole of 0.03-0.25 (at 24 hours) and 0.06-0.5 (at 48 hours) did agree with the 2-day value (Table A) of 0.5.

[2] = tested on: C. krusei (ATCC 6258); assay: as above; details: Pichia kudriavzevii, read-out: minimum inhibition concentration (MIC)
Procedure: as §1, §2

[3] = tested on: C. parapsilosis (ATCC 22019); assay: as above; details: Lodderomyces parapsilosis, C. parapsilosis (22019), read-out: minimum inhibition concentration (MIC)
Procedure: as §1, §2

[4] = tested on: M. furfur (ATCC 12078); assay: as above; details: for MIC: Malassezia furfur, read-out: minimum inhibition concentration (MIC)
Procedure: as §1, §2

[5] = tested on: M. furfur (ATCC 14521); assay: as above
Procedure: as §1, §2

[6] = tested on: M. furfur (ATCC 44344); assay: as above; details: for MIC: Malassezia furfur, read-out: minimum inhibition concentration (MIC)
Procedure: as §1, §2

[7] = tested on: M. globose (ATCC MYA-4889); assay: as above; details: for MIC: read-out: minimum inhibition concentration (MIC)
Procedure: as §1, §2

[8] = tested on: M. restricta (ATCC MYA-4611); assay: as above; details: for MIC: read-out: minimum inhibition concentration (MIC)
Procedure: as §1, §2

[9] = tested on: Candida species; assay: in vitro micro-dilution susceptibility assay, summary; details: method of Rojas
Procedure: as §1, with “seven. […]” for “seven.”

[10] = tested on: Malassezia species; assay: as above; details: compared to the hydrocortisone negative control
Procedure: as §1, with “seven. […]” for “seven.”

O=C(Nc1c(Cl)cncc1Cl)c1ccc(OC(F)F)c(OCC2CC2)c1 [Roflumilast, N-(3,5-dichloropyrid-4-yl)-3-cyclopropylmethoxy-4-difluoromethoxybenzamid-e]
MIC ([1]; ATCC90028, 12 h, Time 0.5 days): > 1020 µg/mL
MIC ([1]; ATCC90028, 24 h, Time 1 days): > 1020 µg/mL
MIC ([1]; ATCC90028, 48 h, Time 2 days): > 1020 µg/mL
MIC ([1]; ATCC90028, 72 h, Time 3 days): > 1020 µg/mL
MIC ([1]; ATCC90028, 96 h, Time 4 days): > 1020 µg/mL
MIC ([1]; ATCC90028, 120 h, Time 5 days): > 1020 µg/mL
MIC ([1]; ATCC90028, 144 h, Time 6 days): > 1020 µg/mL
MIC ([1]; ATCC90028, 168 h, Time 7 days): > 1020 µg/mL
MIC ([2]; ATCC6258, 12 h, Time 0.5 days): 128 µg/mL (≈ 317 µM)
MIC ([2]; ATCC6258, 24 h, Time 1 days): 1020 µg/mL (≈ 2540 µM)
MIC ([2]; ATCC6258, 48 h, Time 2 days): > 1020 µg/mL
MIC ([2]; ATCC6258, 72 h, Time 3 days): > 1020 µg/mL
MIC ([2]; ATCC6258, 96 h, Time 4 days): > 1020 µg/mL
MIC ([2]; ATCC6258, 120 h, Time 5 days): > 1020 µg/mL
MIC ([2]; ATCC6258, 144 h, Time 6 days): > 1020 µg/mL
MIC ([2]; ATCC6258, 168 h, Time 7 days): > 1020 µg/mL
MIC ([3]; ATCC22019, 12 h, Time 0.5 days): 1020 µg/mL (≈ 2540 µM)
MIC ([3]; ATCC22019, 24 h, Time 1 days): 1020 µg/mL (≈ 2540 µM)
MIC ([3]; ATCC22019, 48 h, Time 2 days): > 1020 µg/mL
MIC ([3]; ATCC22019, 72 h, Time 3 days): > 1020 µg/mL
MIC ([3]; ATCC22019, 96 h, Time 4 days): > 1020 µg/mL
MIC ([3]; ATCC22019, 120 h, Time 5 days): > 1020 µg/mL
MIC ([3]; ATCC22019, 144 h, Time 6 days): > 1020 µg/mL
MIC ([3]; ATCC22019, 168 h, Time 7 days): > 1020 µg/mL
MIC ([4]; ATCC12078, 48 h, Time 2 days): 128 µg/mL (≈ 317 µM)
MIC ([4]; ATCC12078, 72 h, Time 3 days): 128 µg/mL (≈ 317 µM)
MIC ([4]; ATCC12078, 96 h, Time 4 days): 128 µg/mL (≈ 317 µM)
MIC ([4]; ATCC12078, 120 h, Time 5 days): 128 µg/mL (≈ 317 µM)
MIC ([4]; ATCC12078, 144 h, Time 6 days): 128 µg/mL (≈ 317 µM)
MIC ([4]; ATCC12078, 168 h, Time 7 days): 128 µg/mL (≈ 317 µM)
minimum inhibition concentration (MIC) ([4]; Time 0.5 days): NGO
minimum inhibition concentration (MIC) ([4]; Time 1 days): NGO
minimum inhibition concentration (MIC) ([5]; Time 0.5 days): NGO
minimum inhibition concentration (MIC) ([5]; Time 1 days): NGO
MIC ([6]; ATCC44344, 48 h, Time 2 days): 64 µg/mL (≈ 159 µM)
MIC ([6]; ATCC44344, 72 h, Time 3 days): 64 µg/mL (≈ 159 µM)
MIC ([6]; ATCC44344, 96 h, Time 4 days): 64 µg/mL (≈ 159 µM)
MIC ([6]; ATCC44344, 120 h, Time 5 days): 64 µg/mL (≈ 159 µM)
MIC ([6]; ATCC44344, 144 h, Time 6 days): 64 µg/mL (≈ 159 µM)
MIC ([6]; ATCC44344, 168 h, Time 7 days): 64 µg/mL (≈ 159 µM)
minimum inhibition concentration (MIC) ([6]; Time 0.5 days): NGO
minimum inhibition concentration (MIC) ([6]; Time 1 days): NGO
MIC ([7]; 48 h, Time 2 days): 32 µg/mL (≈ 79.4 µM)
MIC ([7]; 72 h, Time 3 days): 32 µg/mL (≈ 79.4 µM)
MIC ([7]; 96 h, Time 4 days): 128 µg/mL (≈ 317 µM)
MIC ([7]; 120 h, Time 5 days): 128 µg/mL (≈ 317 µM)
MIC ([7]; 144 h, Time 6 days): 128 µg/mL (≈ 317 µM)
MIC ([7]; 168 h, Time 7 days): 128 µg/mL (≈ 317 µM)
minimum inhibition concentration (MIC) ([7]; Time 0.5 days): NGO
minimum inhibition concentration (MIC) ([7]; Time 1 days): NGO
MIC ([8]; 48 h, Time 2 days): 32 µg/mL (≈ 79.4 µM)
MIC ([8]; 72 h, Time 3 days): 32 µg/mL (≈ 79.4 µM)
MIC ([8]; 96 h, Time 4 days): 32 µg/mL (≈ 79.4 µM)
MIC ([8]; 120 h, Time 5 days): 32 µg/mL (≈ 79.4 µM)
MIC ([8]; 144 h, Time 6 days): 32 µg/mL (≈ 79.4 µM)
MIC ([8]; 168 h, Time 7 days): 64 µg/mL (≈ 159 µM)
minimum inhibition concentration (MIC) ([8]; Time 0.5 days): NGO
minimum inhibition concentration (MIC) ([8]; Time 1 days): NGO
antifungal activity against the tested Candida species [9]: did not demonstrate antifungal activity
antifungal activity against Malassezia species [10]: provides antifungal activity against Malassezia species
